Laboratory results reported in paper PMC11358092, “Caspofungin enhances the potency of rifampin against Gram-negative bacteria” (Frontiers in Microbiology, 2024).
Structures can show the parent of a compound that is named as a salt.

Tested on: E. coli MG1655
Assay: High-throughput screening of FDA-approved drug library for antibiotic adjuvants (growth inhibition, OD600)
Format: cell-based, Escherichia coli
Details: library drug alone, LB medium, 96-well, 8 h static culture at 37°C, relative to PMBN (positive) and DMSO (negative) controls, %, table head prints no unit
Procedure: To screen for antibiotic adjuvants against GNB, […] library drugs or polymyxin B nonapeptide (PMBN, positive control) or dimethyl sulfoxide (DMSO, negative control). After 8 h of static culture at 37°C, the optical density at 600 nm (OD600) was measured using a microplate reader. Percentage inhibition was calculated as (ODN – ODX)/(ODN – ODP) × 100%, where ODX is the OD600 value for a test treated with drug X, and ODP and ODN are the OD600 values for the positive and negative control, respectively.

Structure (SMILES) | Growth inhibition, Compound [%]
C=C[C@]1(C)C[C@@H](OC(=O)CS[C@@H]2C[C@H]3CC[C@@H](C2)N3C)[C@]2(C)[C@H](C)CC[C@]3(CCC(=O)[C@H]32)[C@@H](C)[C@@H]1O [Retapamulin] | 97
Cc1cn([C@H]2C=C[C@@H](CO)O2)c(=O)[nH]c1=O [Stavudine] | 27
CO[C@@]1(NC(=O)Cc2cccs2)C(=O)N2C(C(=O)O)=C(COC(N)=O)CS[C@@H]21 [Cefoxitin sodium] | 78
CO/N=C(\C(=O)N[C@@H]1C(=O)N2C(C(=O)O)=C(CSC(=O)c3ccco3)CS[C@H]12)c1csc(N)n1 [Sodium ceftiofur] | 109
Oc1ccc(Cl)cc1Cc1cc(Cl)ccc1O [Dichlorophen] | 95
CCN(CC)C(=S)SSC(=S)N(CC)CC [Disulfiram] | 78
Cc1cn([C@H]2C[C@H](N=[N+]=[N-])[C@@H](CO)O2)c(=O)[nH]c1=O [Zidovudine] | 95
Cl.N[C@@H]1CCCCN(c2c(F)cc3c(=O)c(C(=O)O)cn(C4CC4)c3c2Cl)C1 [Besifloxacin HCl] | 107
CO/N=C(\C(=O)N[C@@H]1C(=O)N2C(C(=O)[O-])=C(C[n+]3ccc(N)n3CCO)CS[C@H]12)c1csc(N)n1.O=S(=O)(O)O [Cefoselis Sulfate] | 107
COC(=O)N/N=C/c1c[n+]([O-])c2ccccc2[n+]1[O-] [Carbadox] | 110
C[C@@H]1CN(c2c(F)c(N)c3c(=O)c(C(=O)O)cn(C4CC4)c3c2F)C[C@H](C)N1 [Sparfloxacin] | 96
CN(C)[C@@H]1C(O)=C(C(N)=O)C(=O)[C@@]2(O)C(O)=C3C(=O)c4c(O)cccc4[C@@](C)(O)C3[C@H](O)C12.Cl (stereo partly drawn) [Aquacycline] | 110
CO[C@H]1/C=C/O[C@@]2(C)Oc3c(C)c(O)c4c(O)c(c5c(nc6cc(C)ccn65)c4c3C2=O)NC(=O)/C(C)=C\C=C\[C@H](C)[C@H](O)[C@@H](C)[C@@H](O)[C@@H](C)[C@H](OC(C)=O)[C@@H]1C [Rifaximin] | 108
Cc1ccc(S(=O)(=O)O)cc1.NC1CCN(c2nc3c(cc2F)c(=O)c(C(=O)O)cn3-c2ccc(F)cc2F)C1.O (stereo not drawn) [Tosufloxacin p-Toluenesulfonate Hydrate] | 99
C[C@@H]1O[C@@H]1P(=O)(O)O.NC(CO)(CO)CO [Fosfomycin Tromethamine] | 104
CO/N=C(/C(=O)N[C@@H]1C(=O)N2C(C(=O)O)=C(CSC(=O)c3ccco3)CS[C@H]12)c1csc(N)n1.Cl [Ceftiofur hydrochloride] | 84
C=CC1=C(C(=O)O)N2C(=O)[C@@H](NC(=O)/C(=N\OCC(=O)O)c3csc(N)n3)[C@H]2SC1 [Cefixime] | 109
COc1c(N2C[C@@H]3CCCN[C@@H]3C2)c(F)cc2c(=O)c(C(=O)O)cn(C3CC3)c12 [Moxifloxacin] | 101
N[C@@H]1CN(c2c(F)cc3c(=O)c(C(=O)O)cn([C@@H]4C[C@@H]4F)c3c2Cl)CC12CC2.N[C@@H]1CN(c2c(F)cc3c(=O)c(C(=O)O)cn([C@@H]4C[C@@H]4F)c3c2Cl)CC12CC2.O.O.O [Sitafloxacin Hydrate] | 101
CCn1cc(C(=O)O)c(=O)c2cc(F)c(N3CCNCC3)cc21 [Norfloxacin] | 99

Structure (SMILES) | Growth inhibition, Compound [%]
O=[N+]([O-])c1ccc(O)c2ncccc12 [Nitroxoline] | 105
O=c1[nH]c(=O)n([C@H]2C[C@H](O)[C@@H](CO)O2)cc1F [Floxuridine] | 87
O=c1[nH]cnc2c1ncn2[C@H]1CC[C@@H](CO)O1 [Didanosine] | 41
CC1(C)S[C@@H]2[C@H](NC(=O)[C@H](C(=O)O)c3ccsc3)C(=O)N2[C@H]1C(=O)O [Ticarcillin disodium] | 86
C=C1c2cccc(O)c2C(=O)C2=C(O)[C@]3(O)C(=O)C(C(N)=O)=C(O)[C@@H](N(C)C)[C@@H]3[C@@H](O)[C@H]12 [Methacycline hydrochloride] | 112
C[C@@H](O)[C@H]1C(=O)N2C(C(=O)O)=C(S[C@@H]3CN[C@H](C(=O)N(C)C)C3)[C@H](C)[C@H]12 [Meropenem trihydrate] | 86
CO/N=C(\C(=O)N[C@@H]1C(=O)N2C(C(=O)OCOC(=O)C(C)(C)C)=C(Cn3nnc(C)n3)CS[C@H]12)c1csc(N)n1 [Cefteram pivoxil] | 110
CN(C)[C@@H]1C(O)=C(C(N)=O)C(=O)[C@@]2(O)C(O)=C3C(=O)c4c(O)cccc4[C@@](C)(O)[C@H]3[C@H](O)[C@@H]12 [Oxytetracycline Hydrochloride] | 106
Cc1ccc2c(Cl)cc(Cl)c(O)c2n1 [Chloquinan] | 119
O=C(Nc1ccc(Cl)cc1)c1cc(Br)ccc1O [Salifungin] | 67
CO[C@H]1/C=C/O[C@@]2(C)Oc3c(C)c(O)c4c(O)c(c(/C=N/N5CCN(C6CCCC6)CC5)c(O)c4c3C2=O)NC(=O)/C(C)=C\C=C\[C@H](C)[C@H](O)[C@@H](C)[C@@H](O)[C@@H](C)[C@H](OC(C)=O)[C@@H]1C [Rifapentine] | 99
CCn1cc(C(=O)O)c(=O)c2cc(F)c(N3CCNCC3)nc21.CCn1cc(C(=O)O)c(=O)c2cc(F)c(N3CCNCC3)nc21.O.O.O [Enoxacin Sesquihydrate] | 110
Cc1cn([C@H]2C[C@H](F)[C@@H](CO)O2)c(=O)[nH]c1=O [3'-Deoxy-3'-fluorothymidine] | 70
CO[C@@]1(NC(=O)C2SC(=C(C(N)=O)C(=O)O)S2)C(=O)N2C(C(=O)O)=C(CSc3nnnn3C)CS[C@@H]21 (stereo partly drawn) [Cefotetan] | 97
CC1COc2c(N3CCN(C)CC3)c(F)cc3c(=O)c(C(=O)O)cn1c23 (stereo not drawn) [Ofloxacin] | 107
Oc1c(Cl)cc(Cl)c2cccnc12 [Capitrol] | 118
Cn1nnc(-c2ccc(-c3ccc(N4C[C@H](CO)OC4=O)cc3F)cn2)n1 [Torezolid] | 61
CN[C@@H]1[C@@H](O)[C@@H](O[C@@H]2[C@@H](O)[C@H](O[C@H]3OC(CN)=CC[C@H]3N)[C@@H](N)C[C@H]2N)OC[C@]1(C)O [Sisomicin Sulfate] | 105
C[C@@H](O)[C@H]1C(=O)N2C(C(=O)O)=C(SC3CN(C4=NCCS4)C3)[C@H](C)[C@H]12 [Tebipenem] | 109
Oc1ccc(Cl)c2cccnc12 [Dermofongin] | 85

Structure (SMILES) | Growth inhibition, Compound [%]
Cc1cc(CC(C)CC(C)(C)C)n(O)c(=O)c1.NCCO (stereo not drawn) [Piroctone olamine] | 54
Nc1ccc2cc3ccc(N)cc3nc2c1 [Proflavine Hemisulfate] | 54
C[C@H]1COc2c(N3CCN(C)CC3)c(F)cc3c(=O)c(C(=O)O)cn1c23 [Levofloxacin] | 102
NC[C@@H]1O[C@H](O[C@H]2[C@@H](O)[C@H](O[C@@H]3[C@@H](O)[C@H](N)C[C@H](N)[C@H]3O[C@H]3O[C@H](CO)[C@@H](O)[C@H](O)[C@H]3N)O[C@@H]2CO)[C@H](N)[C@@H](O)[C@@H]1O [Paromomycin Sulfate] | 108
CCO.C[C@H]1c2cccc(O)c2C(O)=C2C(=O)[C@]3(O)C(O)=C(C(N)=O)C(=O)[C@@H](N(C)C)[C@@H]3[C@@H](O)[C@@H]21.C[C@H]1c2cccc(O)c2C(O)=C2C(=O)[C@]3(O)C(O)=C(C(N)=O)C(=O)[C@@H](N(C)C)[C@@H]3[C@@H](O)[C@@H]21.Cl.Cl.O [Doxycycline hyclate] | 112
NC1CCN(c2nc3c(cc2F)c(=O)c(C(=O)O)cn3-c2ccc(F)cc2F)C1 (stereo not drawn) [Tosufloxacin] | 106
CCCCCCCCc1ccc(CCC(N)(CO)CO)cc1 [Fingolimod] | 90
CO/N=C(\C(=O)N[C@@H]1C(=O)N2C(C(=O)OCOC(=O)C(C)(C)C)=C(/C=C\c3scnc3C)CS[C@H]12)c1csc(N)n1 [Cefditoren pivoxil] | 73
CNc1ncc(-c2ccc3c(=O)c(C(=O)O)cn(C4CC4)c3c2C)cc1C [Ozenoxacin] | 106
Nc1nc(/C(=C/CC(=O)O)C(=O)N[C@@H]2C(=O)N3C(C(=O)O)=CCS[C@H]23)cs1.O.O [Ceftibuten dihydrate] | 84
CCn1cc(C(=O)O)c(=O)c2cc(F)c(N3CCNCC3)nc21 [Enoxacin] | 109
CC1NCc2cc(-c3ccc4c(=O)c(C(=O)O)cn(C5CC5)c4c3OC(F)F)ccc21.CS(=O)(=O)O.O (stereo not drawn) [Garenoxacin mesylate hydrate] | 106
Oc1c(Cl)cc(Cl)cc1Sc1cc(Cl)cc(Cl)c1O [Bithionol] | 86
CCn1cc(C(=O)O)c(=O)c2cc3c(cc21)OCO3 [Oxolinic acid] | 108
O=C(Nc1cc(Cl)cc(Cl)c1O)c1c(O)c(Cl)cc(Cl)c1Cl [Oxyclozanide] | 52
CCN1C(=O)C=CC1=O [N-Ethylmaleimide] | 106
CN1CCN(c2c(F)cc3c(=O)c(C(=O)O)cn(CCF)c3c2F)CC1 [Fleroxacin] | 109
CN[C@@H]1[C@H](O)[C@H](NC)[C@H]2O[C@@]3(O)C(=O)C[C@@H](C)O[C@H]3O[C@@H]2[C@H]1O.Cl.Cl [Spectinomycin dihydrochloride] | 92
CO/N=C(\C(=O)N[C@@H]1C(=O)N2C(C(=O)O)=C(COC(N)=O)CS[C@H]12)c1ccco1 [Cefuroxime sodium] | 95
Nc1nc(-n2cc(C(=O)O)c(=O)c3cc(F)c(N4CC(O)C4)c(Cl)c32)c(F)cc1F [Delafloxacin] | 105
